Test results from the supplement of paper PMC8882468.
± gives the standard deviation of the averaged measurements.

Columns and labels:
Assay in all cases: CTG-3D luminescence at 96 h relative to day-0 seeding control (ratio to day 0); higher = more growth / less cytotoxicity; PDxO 3D drug screen, 96 h, CTG-3D normalised to day-0 seeding control.
HCI-002 = system: HCI-002 (organoid from a triple-negative breast cancer xenograft)
HCI-011.E2 = system: HCI-011.E2 (organoid from an ER-positive breast cancer xenograft)
HCI-015 = system: HCI-015 (organoid from a triple-negative breast cancer xenograft)
HCI-023 = system: HCI-023 (organoid from a triple-negative breast cancer xenograft)
MDA-MB-231 = system: MDA-MB-231

CC[C@H](NC(=O)[C@H](C)NC)C(=O)N1C[C@@H](O)C[C@H]1Cc1c(-c2[nH]c3cc(F)ccc3c2C[C@@H]2C[C@H](O)CN2C(=O)[C@H](CC)NC(=O)[C@H](C)NC)[nH]c2cc(F)ccc12 [birinapant]
CTG-3D luminescence at 96 h
Details	12.5 pM	0.00025 µM	0.005 µM	0.1 µM	1 µM	10 µM	100 µM	625 fM
HCI-002, days in culture: 62	3.08	2.09	2.65	1.51	1.03	0.891	0.234	2.96
HCI-002, days in culture: 82	3	2.82	1.96	1.59	0.689	0.62	0.148	3.06
HCI-002, days in culture: 91	4.14	3.62	3.4	2.64	1.62	1.38	0.408	4.22
HCI-002, days in culture: 191	2.67	2.28	2.58	1.73	1.31	0.959	0.188	2.59
HCI-002, days in culture: 209	2.21	2.16	1.88	0.886	0.527	0.44	0.127	2.18
HCI-002, days in culture: 227	6.23	5.92	5.21	2.45	1.39	1.41	-0.1	6.13
HCI-011.E2, days in culture: 74	2.25	2.3	1.91	1.82	1.85	1.48	1.22	2.46
HCI-015, days in culture: 172	2.01	1.64	0.598	0.172	0.485	0.234	0.0277	1.3
HCI-015, days in culture: 191	0.803	0.19	0.16	0.126	0.32	0.224	0.0253	0.41
HCI-015, days in culture: 218	1.68	0.775	0.248	0.111	0.125	0.185	0.0267	1.8
HCI-023, days in culture: 111	1.31	0.929	0.368	0.0512	0.0433	0.0326	0.0111	1.35
HCI-023, days in culture: 128	1.21 ± 0.27	1.13 ± 0.3	0.23 ± 0.029	0.0897 ± 0.023	0.044 ± 0.011	0.0472 ± 0.011	0.006598 ± 1.9e-05	1.75 ± 0.32

CTG-3D luminescence at 96 h
Details	12.5 pM	0.00025 µM	0.005 µM	0.1 µM	1 µM	10 µM	100 µM	625 fM
HCI-011.E2	1.4 ± 0.35	1.53 ± 0.32	1.16 ± 0.34	1.61 ± 0.51	1.34 ± 0.71	1.59 ± 0.43	0.956 ± 0.061	1.72 ± 0.18
MDA-MB-231	4.36 ± 1.2	4.2 ± 1.2	4.35 ± 1.2	1.96 ± 1.1	2 ± 1.3	2.03 ± 1.1	2.41 ± 0.96	4.39 ± 1.2

O=C(/C=C/c1cccnc1)NCCCCC1CCN(C(=O)c2ccccc2)CC1 [FK866]
CTG-3D luminescence at 96 h
Details	12.5 pM	0.00025 µM	0.005 µM	0.1 µM	1 µM	10 µM	100 µM	625 fM
HCI-002, days in culture: 62	2.68	2.55	1.43	0.0472	0.0154	0.014	0.0284	3.07
HCI-002, days in culture: 82	2.77	3.14	0.508	0.0661	0.0553	0.0327	0.0409	3.06
HCI-002, days in culture: 91	3.92	3.63	1.55	0.0716	0.0287	0.025	0.0475	4.36
HCI-002, days in culture: 191	2.81	2.7	0.424	0.0805	0.0595	0.0599	0.0916	2.43
HCI-002, days in culture: 209	2.49	2.33	1.05	0.0589	0.0401	0.0272	0.062	2.4
HCI-002, days in culture: 227	5.05	5.39	3.02	0.104	0.0406	0.0434	0.0754	5.65
HCI-011.E2, days in culture: 74	2.62	2.62	2.29	1.99	2.77	2.79	2.06	2.32
HCI-015, days in culture: 172	2.55	0.705	0.752	0.206	0.213	0.158	0.29	2.38
HCI-015, days in culture: 191	2.04	1.32	0.805	0.141	0.243	0.167	0.215	1.64
HCI-015, days in culture: 218	1.79	1.55	0.648	0.169	0.147	0.133	0.158	1.86
HCI-023, days in culture: 111	1.12	1.65	0.244	0.0924	0.0716	0.0618	0.0864	1.25
HCI-023, days in culture: 128	1.73 ± 0.35	1.55 ± 0.36	0.315 ± 0.02	0.153 ± 0.032	0.103 ± 0.018	0.135 ± 0.015	0.123 ± 0.029	1.8 ± 0.19

CTG-3D luminescence at 96 h
Details	12.5 pM	0.00025 µM	0.005 µM	0.1 µM	1 µM	10 µM	100 µM	625 fM
HCI-011.E2	1.74 ± 0.37	1.7 ± 0.019	1.37 ± 0.047	1.62 ± 0.38	1.48 ± 0.58	1.75 ± 0.66	1.55 ± 0.32	1.87 ± 0.63
MDA-MB-231	4.37 ± 1.3	4.45 ± 1.5	3.77 ± 1.3	0.298 ± 0.16	0.237 ± 0.14	0.236 ± 0.13	0.146 ± 0.08	4.49 ± 1.3

CC(C)(C(=O)NCC(F)(F)C(F)(F)F)C(=O)N[C@@H]1C(=O)Nc2ccccc2-c2ccccc21
CTG-3D luminescence at 96 h
Details	12.5 pM	0.00025 µM	0.005 µM	0.1 µM	1 µM	10 µM	100 µM	625 fM
HCI-002, days in culture: 62	2.81	2.3	2.94	2.74	2.12	3.01	2.47	2.63
HCI-002, days in culture: 82	3.56	2.71	2.34	2.94	2.61	3.03	1.34	3.05
HCI-002, days in culture: 91	4.71	3.94	3.16	3.91	2.99	3.51	2.15	4.61
HCI-002, days in culture: 191	2.82	2.44	2.45	2.13	2.48	2.26	1.81	2.66
HCI-002, days in culture: 209	2.45	2.57	2.38	2.22	2.25	1.91	1.55	2.4
HCI-002, days in culture: 227	5.87	5.33	5.89	5.45	4.95	5.63	2.44	6.16
HCI-011.E2, days in culture: 74	2.34	1.83	1.89	1.8	1.57	2.5	1.76	1.73
HCI-015, days in culture: 172	1.79	0.907	1.41	0.52	0.649	0.927	0.996	1.66
HCI-015, days in culture: 191	2.23	0.752	0.752	0.54	0.523	0.502	0.509	1.89
HCI-015, days in culture: 218	1.79	1.02	1.03	0.889	0.743	0.516	0.649	1.97
HCI-023, days in culture: 111	1.36	1.08	0.961	0.975	0.945	1.09	0.672	1.53
HCI-023, days in culture: 128	1.61 ± 0.47	1.47 ± 0.38	1.06 ± 0.24	1.27 ± 0.017	1.17 ± 0.31	1.65 ± 0.21	0.804 ± 0.066	1.64 ± 0.92

CTG-3D luminescence at 96 h
Details	12.5 pM	0.00025 µM	0.005 µM	0.1 µM	1 µM	10 µM	100 µM	625 fM
HCI-011.E2	1.55 ± 0.018	1.61 ± 0.057	1.49 ± 0.27	1.97 ± 0.57	1.71 ± 0.46	2.01 ± 0.5	1.76 ± 0.33	1.94 ± 0.38
MDA-MB-231	4.58 ± 1.4	4.53 ± 1.4	4.6 ± 1.4	4.48 ± 1.2	4.6 ± 1.4	4.7 ± 1.3	4.04 ± 1	4.6 ± 1.2

O=C(O)C1(C(=O)O)CCC1.[NH2-].[NH2-].[Pt+2] [carboplatin]
CTG-3D luminescence at 96 h
Details	12.5 pM	0.00025 µM	0.005 µM	0.1 µM	1 µM	10 µM	100 µM	625 fM
HCI-002, days in culture: 62	3.04	2.34	2.63	2.61	2.45	2.29	0.71	2.9
HCI-002, days in culture: 82	2.75	3.03	1.99	2.54	2.26	1.82	0.726	2.68
HCI-002, days in culture: 91	4.49	3.72	3.53	3.87	3.9	3.69	0.992	4.08
HCI-002, days in culture: 191	2.54	2.62	2.4	2.78	2.89	1.86	0.967	2.4
HCI-002, days in culture: 209	2.4	2.34	2.11	2.07	2.18	1.69	0.74	2.38
HCI-002, days in culture: 227	5.92	5.72	5.38	6.29	5.74	5.68	1.18	6.2
HCI-011.E2, days in culture: 74	2.31	2.54	2.04	1.86	2.2	2.77	2.69	1.99
HCI-015, days in culture: 172	2.56	2.15	2.48	1.49	2.05	0.715	0.354	2.54
HCI-015, days in culture: 191	2.21	1.24	1.47	1.04	1.4	0.766	0.228	1.15
HCI-015, days in culture: 218	1.26	1.7	1.7	1.77	1.54	0.685	0.229	1.75
HCI-023, days in culture: 111	1.4	1.31	1.12	1.33	0.977	1.03	0.106	1.16
HCI-023, days in culture: 128	1.28 ± 0.071	1.47 ± 0.21	1.23 ± 0.099	1.6 ± 0.024	1.16 ± 0.075	1.35 ± 0.19	0.0724 ± 0.044	1.57 ± 0.52

CTG-3D luminescence at 96 h
Details	12.5 pM	0.00025 µM	0.005 µM	0.1 µM	1 µM	10 µM	100 µM	625 fM
HCI-011.E2	1.65 ± 0.12	1.72 ± 0.4	1.54 ± 0.35	2.26 ± 0.84	1.71 ± 0.94	2.08 ± 0.84	1.71 ± 0.52	1.69 ± 0.26
MDA-MB-231	4.49 ± 1.4	4.27 ± 1.5	4.51 ± 1.6	4.46 ± 1.5	4.4 ± 1.5	4.16 ± 1.3	3.05 ± 0.73	4.47 ± 1.4
